Assay [1] addresses T1, BRAF G466V (Homo sapiens, UniProt P15056, G466V).
T1 construct: expressed in transfected cells
The assay is described as follows: Cellular assay of target protein degradation, T-Rex 293 cells stably transfected with HA-BRAF G466V (HA immunofluorescence, high content imaging). As to conditions: T-Rex 293 HA-BRAF G466V; for DC50: half maximal degradation, read-out: BRaf G466V DC50; for Dmax: maximum degradation observed. Type of assay: cell-based. The essentials: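 Doxycycline-induced (0.75 ng/mL) cells treated 24 h at 37 °C with compound from 30 nM to 3 pM (0.1% DMSO). After fixation and permeabilisation, HA-tagged BRAF G466V immunostained and quantified by high-content imaging. DC50 and Dmax (percent of control) derived.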

Assay [2] deals with T2, BRAF V600E (Homo sapiens, UniProt P15056, V600E).
T2 construct: expressed in transfected cells
In words: Cellular assay of target protein degradation, T-Rex 293 cells stably transfected with HA-BRAF_V600E (HA immunofluorescence, high content imaging). The format is cell-based. The settings on record: T-Rex 293 HA-BRAF V600E; for DC50: half maximal degradation, read-out: BRaf V600E DC50; for Dmax: maximum degradation observed. The essentials: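 Doxycycline-induced (1 ng/mL) T-Rex 293 cells expressing HA-BRAF V600E treated 24 h at 37 °C with compound at 1 μM to 0.1 nM final in 0.1% DMSO. Remaining HA-tagged protein quantified by fixed-cell anti-HA immunofluorescence and high-content imaging; DC50 and Dmax (% of control) derived.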

T1 sequence (P15056 whole entry G466V): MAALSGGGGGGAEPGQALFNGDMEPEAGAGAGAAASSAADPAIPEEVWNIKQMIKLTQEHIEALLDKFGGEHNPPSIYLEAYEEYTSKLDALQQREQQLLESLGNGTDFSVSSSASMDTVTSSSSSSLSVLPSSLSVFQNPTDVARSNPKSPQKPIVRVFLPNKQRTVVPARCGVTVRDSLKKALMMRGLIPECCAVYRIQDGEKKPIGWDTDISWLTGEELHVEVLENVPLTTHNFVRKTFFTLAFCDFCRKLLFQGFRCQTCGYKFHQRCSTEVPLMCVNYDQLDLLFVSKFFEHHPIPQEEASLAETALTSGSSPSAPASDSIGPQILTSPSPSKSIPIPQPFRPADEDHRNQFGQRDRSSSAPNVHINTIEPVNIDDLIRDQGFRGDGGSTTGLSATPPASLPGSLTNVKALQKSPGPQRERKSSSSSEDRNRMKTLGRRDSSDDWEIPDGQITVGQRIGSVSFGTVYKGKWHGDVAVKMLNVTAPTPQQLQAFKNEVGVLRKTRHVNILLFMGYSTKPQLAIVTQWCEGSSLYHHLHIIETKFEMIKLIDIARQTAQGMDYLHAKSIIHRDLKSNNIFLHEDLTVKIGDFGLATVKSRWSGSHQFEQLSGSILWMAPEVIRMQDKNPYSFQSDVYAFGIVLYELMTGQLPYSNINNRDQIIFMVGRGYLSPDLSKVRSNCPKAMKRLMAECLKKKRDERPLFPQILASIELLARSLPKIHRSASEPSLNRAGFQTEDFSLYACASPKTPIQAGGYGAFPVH
T2 sequence (P15056 whole entry V600E): as the sequence (P15056 whole entry G466V) above, with V466G, V600E counted along it

Usually DC50 stands for the midpoint of the concentration-degradation curve. A word on the Dmax: it is the largest share of the target that was removed. A high value points to deep degradation. For the molecule `CCCS(=O)(=O)Nc1ccc(F)c(C(=O)c2c[nH]c3ncc(-c4ccc(N5CCC(CN6CCN(c7ccc8c(c7)CN([C@H]7CCC(=O)NC7=O)C8=O)CC6)CC5)cc4)cc23)c1F` [Compound 245, N-{3-[5-(4-{4-[(4-{2-[(3S)-2,6-dioxopiperidin-3-yl]-1-oxo-2,3-dihydro-1H-isoindol-5-yl}piperazin-1-yl)methyl]piperidin-1-yl}phenyl)-1H-pyrrolo[2,3-b]pyridine-3-carbonyl]-2,4-difluorophenyl}propane-1-sulfonamide], the DC50 fell in the range of 1 to 10 nM in assay [1] and 5 to 50 nM in assay [2]. In addition, the maximal degradation (Dmax) in assay [1] is greater than 70%; in assay [2] it was 35 to 70%.

As to `O=C1CCC(N2Cc3cc(N4CC5(CN(CC6CCN(c7ccc(-c8cnc9[nH]cc(C(=O)c%10c(F)ccc(NS(=O)(=O)N%11CCC(F)(F)C%11)c%10F)c9c8)cc7)CC6)C5)C4)ccc3C2=O)C(=O)N1` (stereo not drawn) [Compound 246, N-[3-(5-{4-[4-({6-[2-(2,6-dioxopiperidin-3-yl)-1-oxo-2,3-dihydro-1H-isoindol-5-yl]-2,6-diazaspiro[3.3]heptan-2-yl}methyl)piperidin-1-yl]phenyl}-1H-pyrrolo [2,3-b]pyridine-3-carbonyl)-2,4-difluorophenyl]-3,3-difluoropyrrolidine-1-sulfonamide], in assay [1], the 50% degradation concentration (DC50) fell in the range of 1 to 10 nM and the Dmax was greater than 70%. Further, in assay [2], the DC50 lay within 5 to 50 nM and the greatest degradation seen (Dmax) is 35 to 70%.

Consider `COc1cc(N2CCC(CN3CC4(C3)CN(c3ccc(-c5cnc6[nH]cc(C(=O)c7c(F)ccc(NS(=O)(=O)N8CCC(F)(F)C8)c7F)c6c5)cc3)C4)CC2)cc2c1C(=O)N(C1CCC(=O)NC1=O)C2` (stereo not drawn) [Compound 247, N-[3-(5-{4-[6-({1-[2-(2,6-dioxopiperidin-3-yl)-7-methoxy-1-oxo-2,3-dihydro-1H-isoindol-5-yl]piperidin-4-yl}methyl)-2,6-diazaspiro[3.3]heptan-2-yl]phenyl}-1H-pyrrolo[2,3-b]pyridine-3-carbonyl)-2,4-difluorophenyl]-3,3-difluoropyrrolidine-1-sulfonamide], for which the DC50 fell in the range of 1 to 10 nM in assay [1] and 5 to 50 nM in assay [2]. Moreover, the greatest degradation seen (Dmax) in assay [1] was greater than 70%; in assay [2], less than 35%.

With `O=C1CCC(N2Cc3cc(CCCN4CC5(C4)CN(c4ccc(-c6cnc7[nH]cc(C(=O)c8c(F)ccc(NS(=O)(=O)N9CCC(F)(F)C9)c8F)c7c6)cc4)C5)ccc3C2=O)C(=O)N1` (stereo not drawn) [Compound 248, N-(3-{5-[4-(6-{3-[2-(2,6-dioxopiperidin-3-yl)-1-oxo-2,3-dihydro-1H-isoindol-5-yl]propyl}-2,6-diazaspiro[3.3]heptan-2-yl)phenyl]-1H-pyrrolo[2,3-b]pyridine-3-carbonyl}-2,4-difluorophenyl)-3,3-difluoropyrrolidine-1-sulfonamide], the 50% degradation concentration (DC50) lay within 1 to 10 nM in assay [1] and 5 to 50 nM in assay [2]. In addition, the results for the Dmax in assay [1] and in assay [2] were greater than 70% and 35 to 70%, respectively.

Consider `COc1cc(N2CC3(CN(CC4CCN(c5ccc(-c6cnc7[nH]cc(C(=O)c8c(F)ccc(NS(=O)(=O)N9CC[C@@H](F)C9)c8F)c7c6)cc5)CC4)C3)C2)cc2c1C(=O)N([C@H]1CCC(=O)NC1=O)C2` [Compound 249, (3R)-N-{3-[5-(4-{4-[(6-{2-[(3S)-2,6-dioxopiperidin-3-yl]-7-methoxy-1-oxo-2,3-dihydro-1H-isoindol-5-yl}-2,6-diazaspiro[3.3]heptan-2-yl)methyl]piperidin-1-yl}phenyl)-1H-pyrrolo [2,3-b]pyridine-3-carbonyl]-2,4-difluorophenyl}-3-fluoropyrrolidine-1-sulfonamide], for which the 50% degradation concentration (DC50) in assay [1] fell in the range of 1 to 10 nM; in assay [2], 5 to 50 nM. The results for the Dmax in assay [1] and in assay [2] were greater than 70% and 35 to 70%, respectively.

With `COc1cc(N2CC3(CN(CC4CCN(c5ccc(-c6cnc7[nH]cc(C(=O)c8c(F)ccc(NS(=O)(=O)N9CC[C@@H](F)C9)c8F)c7c6)cc5)CC4)C3)C2)cc2c1C(=O)N([C@@H]1CCC(=O)NC1=O)C2` [Compound 250, (3R)-N-{3-[5-(4-{4-[(6-{2-[(3R)-2,6-dioxopiperidin-3-yl]-7-methoxy-1-oxo-2,3-dihydro-1H-isoindol-5-yl}-2,6-diazaspiro[3.3]heptan-2-yl)methyl]piperidin-1-yl}phenyl)-1H-pyrrolo [2,3-b]pyridine-3-carbonyl]-2,4-difluorophenyl}-3-fluoropyrrolidine-1-sulfonamide], in assay [1], the DC50 was in the range of 1 to 10 nM and the Dmax was greater than 70%. Further, in assay [2], the 50% degradation concentration (DC50) lay within 5 to 50 nM and the Dmax was less than 35%.

With `O=C1CCC(N2Cc3cc(OCCCCN4CCN(c5ccc(-c6cnc7[nH]cc(C(=O)c8c(F)ccc(NS(=O)(=O)N9CCC(F)(F)C9)c8F)c7c6)cc5)CC4)ccc3C2=O)C(=O)N1` (stereo not drawn) [Compound 251, N-[3-(5-{4-[4-(4-{[2-(2,6-dioxopiperidin-3-yl)-1-oxo-2,3-dihydro-1H-isoindol-5-yl]oxy}butyl)piperazin-1-yl]phenyl}-1H-pyrrolo[2,3-b]pyridine-3-carbonyl)-2,4-difluorophenyl]-3,3-difluoropyrrolidine-1-sulfonamide], the DC50 lay in the range of 1 to 10 nM in assay [1] and 5 to 50 nM in assay [2]. Besides, the greatest degradation seen (Dmax) in assay [1] and in assay [2] was 35 to 70% each time.

With `O=C1CC[C@H](N2Cc3cc(C4CCN(CC5CCN(c6ccc(-c7cnc8[nH]cc(C(=O)c9c(F)ccc(NS(=O)(=O)N%10CC[C@@H](F)C%10)c9Cl)c8c7)cc6)CC5)CC4)ccc3C2=O)C(=O)N1` [Compound 252, (3R)-N-{2-chloro-3-[5-(4-{4-[(4-{2-[(3S)-2,6-dioxopiperidin-3-yl]-1-oxo-2,3-dihydro-1H-isoindol-5-yl}piperidin-1-yl)methyl]piperidin-1-yl}phenyl)-1H-pyrrolo [2,3-b]pyridine-3-carbonyl]-4-fluorophenyl}-3-fluoropyrrolidine-1-sulfonamide], in assay [1], the DC50 was less than 1 nM and the Dmax lay in the range of 35 to 70%. In assay [2], the 50% degradation concentration (DC50) lay within 5 to 50 nM and the Dmax is 35 to 70%.

Turning to `Cc1c(NS(=O)(=O)N2CC[C@@H](F)C2)ccc(F)c1C(=O)c1c[nH]c2ncc(-c3ccc(N4CCC(CN5CCC(c6ccc7c(c6)CN([C@H]6CCC(=O)NC6=O)C7=O)CC5)CC4)cc3)cc12` [Compound 253, (3R)-N-{3-[5-(4-{4-[(4-{2-[(3S)-2,6-dioxopiperidin-3-yl]-1-oxo-2,3-dihydro-1H-isoindol-5-yl}piperidin-1-yl)methyl]piperidin-1-yl}phenyl)-1H-pyrrolo [2,3-b]pyridine-3-carbonyl]-4-fluoro-2-methylphenyl}-3-fluoropyrrolidine-1-sulfonamide], in assay [1], the DC50 fell in the range of 1 to 10 nM and the Dmax fell in the range of 35 to 70%. Further, in assay [2], the DC50 was in the range of 5 to 50 nM and the Dmax fell in the range of 35 to 70%.

As to `Nc1ccc(F)c(C(=O)c2c[nH]c3ncc(-c4ccc(N5CCC(CN6CCC(c7ccc8c(c7)CN([C@H]7CCC(=O)NC7=O)C8=O)CC6)CC5)cc4)cc23)c1F` [Compound 254, (3S)-3-(5-{1-[(1-{4-[3-(3-amino-2,6-difluorobenzoyl)-1H-pyrrolo[2,3-b]pyridin-5-yl]phenyl}piperidin-4-yl)methyl]piperidin-4-yl}-1-oxo-2,3-dihydro-1H-isoindol-2-yl) piperidine-2,6-dione], in assay [1], the half-maximal degradation concentration (DC50) was less than 1 nM and the maximal degradation (Dmax) is less than 35%. Besides, the half-maximal degradation concentration (DC50) in assay [2] was greater than 500 nM.

For the origin of these results see US12180193B2, “Accelerating fibrosarcoma protein degrading compounds and associated methods of use” (Arvinas Operations, Inc., priority 2020, dated 2024).
